Consider 27 compounds from patent publication US12415794B2 (Edgewise Therapeutics, Inc., priority 2018, dated 2025).

The target of test [1] is skeletal myofibrils (myosin ATPase). In words: Skeletal Myofibril ATPase Assay. In kind it is biochemical. On the procedure: FIG. 7 depicts the buffer preparation procedures of Buffer A and Buffer B for the skeletal myofibril ATPase assay described in Example 12. Buffers were stored on ice until use.
Example 12: Skeletal Myofibril ATPase Assay
(§1) Overview: Myosin ATPase activity is assessed by using a coupled reaction system, in which ADP generated by the myosin ATPase function is coupled to the disappearance of NADH through the pyruvate kinase/lactate dehydrogenase (PK-LDH) system. ATPase activity produces ADP, which is used as a substrate for PK to produce pyruvate and regenerate ATP. The pyruvate is then used as a substrate by LDH to oxidize NADH to NAD+. The rate of the reaction is monitored through the time-dependent disappearance of NADH using absorbance at 340 nm. Inhibition of ATPase activity by the assayed compounds is indicated by a reduced rate of NADH loss, relative to vehicle-treated controls, over the experimental time window. To assess the selectivity of the assayed compounds for skeletal myofibrils, the compounds are counter-screened in cardiac myofibrils.
Materials: The following stock solutions and reagents were used in the Skeletal Myofibril ATPase Assay:
Stock Solutions of pCa buffer. Combine PIPES, CaCl2, and EGTA solutions with 70 mL of water. Adjust pH to 7.0 and bring final volume to 100 mL.
Skeletal Myofibril ATPase Assay Procedure: BSA, ATP, NADH, PEP, and DTT solutions were thawed at room temperature, then transferred to ice. Pellet-frozen myofibrils were transferred with approximately twice the required volume into a sufficiently large tube and capped. Myofibrils were thawed by rolling in a water bath for approximately 15 min at room temperature and cooled on ice. Buffers A and B were prepared by adjusting volumes as necessary for required number of wells and stored on ice. 0.5 μL of the compounds to be assayed were added into wells. 25 μL of Buffer A was dispensed into the wells, followed by 25 μL of Buffer B. The wells were measured for absorbance at 340 nm, using a kinetic protocol in which the wells are read every 1.5-2 min for 45 min. The slope of the data was approximated by subtracting the minimum absorbance value from the maximum value for each well. This was accomplished either in the SoftMax Pro software or in a spreadsheet program such as Excel. Using GraphPad Prism 8.0, the data was normalized by assigning a value of 100% to the 1% DMSO vehicle wells. Typically, a normalized 0% value was simply assigned to a (Max−Min) value of 0. The normalized data was fit to a Four Parameter Logistic sigmoidal equation, constraining the bottom to be 0 or greater. Compounds of Table 1, 2, and 3 were tested and results of the assay appear in Tables 4a-4c. A=IC50 is less than or equal to 10 μM; B=IC50 is greater than 10 μM and less than 100 μM; C=IC50 is greater than 100 μM.

The target in test [2] is T1, cardiac myofibrils (myosin ATPase).
T1 construct: frozen myofibril pellets obtained from cardiac tissue; from tissue
In words: Cardiac Myofibril ATPase Assay (counter screen). The test is classed as biochemical. The note with it: myofibrils 1.0 mg/mL, KCl omitted. As to the method:
as §1
Example 13: Cardiac Myofibril ATPase Assay
Following example 11, the counter screen was done using frozen myofibril pellets obtained from cardiac tissue. The assay was done in the same manner as above, with the following notable exceptions: the final well concentration of myofibrils was 1.0 mg/mL and KCl was omitted from the recipe.
Compounds of Table 1 to 3 were tested, and results of the assays appear in Tables 5a-5c herein. A=IC50 is less than or equal to 10 μM; B=IC50 is greater than 10 μM and less than 100 μM; C=IC50 is greater than 100 μM; and […].

Each structure is given as a SMILES string.

T1 sequence (P12883 whole entry): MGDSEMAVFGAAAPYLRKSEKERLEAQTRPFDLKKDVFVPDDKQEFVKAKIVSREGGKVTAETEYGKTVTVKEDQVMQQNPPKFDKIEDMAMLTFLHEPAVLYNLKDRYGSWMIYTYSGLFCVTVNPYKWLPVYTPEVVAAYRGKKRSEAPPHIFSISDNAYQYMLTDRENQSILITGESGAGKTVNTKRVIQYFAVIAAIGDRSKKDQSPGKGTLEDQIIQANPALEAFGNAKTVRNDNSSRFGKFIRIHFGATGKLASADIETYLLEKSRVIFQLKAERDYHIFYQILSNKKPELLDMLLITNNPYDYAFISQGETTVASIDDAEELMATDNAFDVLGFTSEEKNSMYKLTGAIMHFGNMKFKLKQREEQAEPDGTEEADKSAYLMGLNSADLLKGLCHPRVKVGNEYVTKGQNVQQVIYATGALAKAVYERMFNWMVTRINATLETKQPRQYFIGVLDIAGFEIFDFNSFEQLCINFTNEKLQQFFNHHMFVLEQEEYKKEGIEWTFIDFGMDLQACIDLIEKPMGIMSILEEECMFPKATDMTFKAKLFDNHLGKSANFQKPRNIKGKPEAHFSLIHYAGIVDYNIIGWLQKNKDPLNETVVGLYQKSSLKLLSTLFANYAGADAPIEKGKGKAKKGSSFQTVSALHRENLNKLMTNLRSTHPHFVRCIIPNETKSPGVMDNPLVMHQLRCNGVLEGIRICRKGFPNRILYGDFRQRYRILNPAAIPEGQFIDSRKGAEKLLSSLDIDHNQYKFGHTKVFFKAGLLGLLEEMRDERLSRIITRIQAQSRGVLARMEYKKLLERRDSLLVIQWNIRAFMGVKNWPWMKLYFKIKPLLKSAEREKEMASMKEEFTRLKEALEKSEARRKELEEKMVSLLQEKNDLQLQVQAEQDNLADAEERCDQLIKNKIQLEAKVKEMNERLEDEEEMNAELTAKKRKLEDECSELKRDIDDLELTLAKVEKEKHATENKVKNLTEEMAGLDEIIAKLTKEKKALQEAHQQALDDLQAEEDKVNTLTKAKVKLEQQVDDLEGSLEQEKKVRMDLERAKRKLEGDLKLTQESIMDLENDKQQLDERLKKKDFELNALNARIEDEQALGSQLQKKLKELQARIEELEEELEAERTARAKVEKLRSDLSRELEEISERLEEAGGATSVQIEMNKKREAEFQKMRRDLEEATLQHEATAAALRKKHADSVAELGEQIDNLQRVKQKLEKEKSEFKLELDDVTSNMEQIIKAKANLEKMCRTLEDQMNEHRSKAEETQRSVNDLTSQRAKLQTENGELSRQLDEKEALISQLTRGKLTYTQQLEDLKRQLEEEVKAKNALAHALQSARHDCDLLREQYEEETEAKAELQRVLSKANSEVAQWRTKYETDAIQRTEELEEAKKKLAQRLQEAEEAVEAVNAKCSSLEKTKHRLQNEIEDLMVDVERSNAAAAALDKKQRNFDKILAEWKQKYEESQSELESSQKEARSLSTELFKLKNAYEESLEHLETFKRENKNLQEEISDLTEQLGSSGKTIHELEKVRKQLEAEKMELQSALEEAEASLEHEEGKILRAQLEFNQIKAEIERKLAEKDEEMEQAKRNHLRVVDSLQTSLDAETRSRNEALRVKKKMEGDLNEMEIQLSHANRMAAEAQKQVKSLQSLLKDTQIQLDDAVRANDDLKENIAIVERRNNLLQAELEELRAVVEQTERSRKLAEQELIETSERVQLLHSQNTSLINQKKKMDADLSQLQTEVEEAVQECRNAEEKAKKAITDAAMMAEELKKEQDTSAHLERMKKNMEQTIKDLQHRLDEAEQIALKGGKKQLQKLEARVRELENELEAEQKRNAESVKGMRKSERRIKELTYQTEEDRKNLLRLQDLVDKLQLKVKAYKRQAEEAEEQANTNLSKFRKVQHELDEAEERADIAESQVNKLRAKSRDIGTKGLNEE
T1 sequence (P08590 whole entry partner): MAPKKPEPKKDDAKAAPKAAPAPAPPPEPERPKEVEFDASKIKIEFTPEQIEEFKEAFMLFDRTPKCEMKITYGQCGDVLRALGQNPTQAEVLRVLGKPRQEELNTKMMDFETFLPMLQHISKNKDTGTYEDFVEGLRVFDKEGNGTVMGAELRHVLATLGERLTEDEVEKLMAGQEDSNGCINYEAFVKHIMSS
T1 sequence (P10916 whole entry partner): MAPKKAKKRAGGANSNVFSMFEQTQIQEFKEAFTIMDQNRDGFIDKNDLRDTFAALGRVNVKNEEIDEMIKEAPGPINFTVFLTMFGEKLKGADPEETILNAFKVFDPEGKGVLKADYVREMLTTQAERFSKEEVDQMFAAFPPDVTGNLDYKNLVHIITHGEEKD

For the compound `CC(C)(C#N)NC(=O)Cn1nc(-c2ccc(OC(F)F)nc2)ccc1=O` [Compound I-35, N-(2-cyanopropan-2-yl)-2-(3-(6-(difluoromethoxy)pyridin-3-yl)-6-oxopyridazin-1(6H)-yl)acetamide], the values for the 50% inhibitory concentration (IC50) in test [1] (Table 4A) and in test [2] (Table 5A) were 10 to 100 µM and above 100 µM, respectively.

With `O=C(Cn1nc(-c2ccccc2)ccc1=O)NC1(c2ccccc2)CCC1` [IIIc-51, 2-(6-oxo-3-phenylpyridazin-1(6H)-yl)-N-(1-phenylcyclobutyl)acetamide], the IC50 in test [1] (Table 4C) is below 10 µM; in test [2] (Table 5C), above 100 µM. `O=C(Cn1nc(-c2ccc(OC(F)F)nc2)ccc1=O)N[C@H]1CC12CC2` [Compound I-17, (S)-2-(3-(6-(difluoromethoxy)pyridin-3-yl)-6-oxopyridazin-1(6H)-yl)-N-(spiro[2.2]pentan-1-yl)acetamide]: the IC50 in test [1] (Table 4A) was 10 to 100 µM; in test [2] (Table 5A), above 100 µM. In the case of `CC(C)(C)NC(=O)Cn1nc(-c2ccc(OC(F)F)cc2)ccc1=O` [II-16, N-(tert-butyl)-2-(3-(4-(difluoromethoxy)phenyl)-6-oxopyridazin-1(6H)-yl)acetamide], the IC50 was 10 to 100 µM in test [1] (Table 4B) and above 100 µM in test [2] (Table 5B).

As for `CCNC(=O)Cn1nc(-c2ccc(N3CC(F)(F)C3)nc2)ccc1=O` [Compound I-6, 2-(3-(6-(3,3-difluoroazetidin-1-yl)pyridin-3-yl)-6-oxopyridazin-1(6H)-yl)-N-ethylacetamide], the figures for the half-inhibitory concentration (IC50) in test [1] (Table 4A) and in test [2] (Table 5A) were 10 to 100 µM and above 100 µM, respectively. For the compound `COc1ccc(-c2ccc(=O)n(CC(=O)NC(C)C)n2)c(F)c1` [IIIb-19, 2-(3-(2-fluoro-4-methoxyphenyl)-6-oxopyridazin-1(6H)-yl)-N-isopropylacetamide], the IC50 in test [1] (Table 4C) is 10 to 100 µM; in test [2] (Table 5C) it was above 100 µM. Taken in the same sequence, the figures for `CCC1CCC(CNC(=O)Cn2nc(-c3ccccc3)ccc2=O)CC1` (stereo not shown) [IIIc-55, N-((4-ethylcyclohexyl)methyl)-2-(6-oxo-3-phenylpyridazin-1(6H)-yl)acetamide] were 10 to 100 µM and above 100 µM.

Regarding `COc1ccc(-c2ccc(=O)n(CC(=O)NCc3ccccc3OC)n2)cc1` [IIIb-21, N-(2-methoxybenzyl)-2-(3-(4-methoxyphenyl)-6-oxopyridazin-1(6H)-yl)acetamide], the IC50 in test [1] (Table 4C) is 10 to 100 µM; in test [2] (Table 5C) it was above 100 µM.

Turning to `O=C(Cn1nc(-c2ccc(OC(F)F)nc2)ccc1=O)NC12CC(C1)C2` [Compound I-11, N-(bicyclo[1.1.1]pentan-1-yl)-2-(3-(6-(difluoromethoxy)pyridin-3-yl)-6-oxopyridazin-1(6H)-yl)acetamide], the IC50 in test [1] (Table 4A) was 10 to 100 µM; in test [2] (Table 5A) it was above 100 µM.

`CN(Cc1ccccc1)C(=O)Cn1nc(-c2ccc(Cl)cc2)ccc1=O` [IIIc-32, N-benzyl-2-(3-(4-chlorophenyl)-6-oxopyridazin-1(6H)-yl)-N-methylacetamide]: the concentration for half-maximal inhibition (IC50) in test [1] (Table 4C) is 10 to 100 µM; in test [2] (Table 5C), above 100 µM.

`CCNC(=O)Cn1nc(-c2ccc(NC34CC(C3)C4)nc2)ccc1=O` [Compound I-36, 2-(3-(6-(bicyclo[1.1.1]pentan-1-ylamino)pyridin-3-yl)-6-oxopyridazin-1(6H)-yl)-N-ethylacetamide]: the IC50 in test [1] (Table 4A) is below 10 µM; in test [2] (Table 5A), above 100 µM.

As to `CC(C)CNC(=O)Cn1nc(-c2ccc(Cl)cc2)ccc1=O` [IIIc-35, 2-(3-(4-chlorophenyl)-6-oxopyridazin-1(6H)-yl)-N-isobutylacetamide], the results for the IC50 in test [1] (Table 4C) and in test [2] (Table 5C) were 10 to 100 µM and above 100 µM, respectively. Take `COc1ccc(-c2ccc(=O)n(CC(=O)NCc3ccccc3)n2)cc1` [IIIb-20, N-benzyl-2-(3-(4-methoxyphenyl)-6-oxopyridazin-1(6H)-yl)acetamide]: the results for the IC50 in test [1] (Table 4C) and in test [2] (Table 5C) were 10 to 100 µM and above 100 µM, respectively. In the case of `COc1ccc(-c2ccc(=O)n(CC(=O)NCc3ccco3)n2)cc1` [IIIb-53, N-(furan-2-ylmethyl)-2-(3-(4-methoxyphenyl)-6-oxopyridazin-1(6H)-yl)acetamide], the half-inhibitory concentration (IC50) in test [1] (Table 4C) and in test [2] (Table 5C) was above 100 µM in each case.

`COc1ccc(-c2ccc(=O)n(CC(=O)NCc3ccccc3)n2)c(F)c1` [IIIb-54, N-benzyl-2-(3-(2-fluoro-4-methoxyphenyl)-6-oxopyridazin-1(6H)-yl)acetamide]: the IC50 in test [1] (Table 4C) and in test [2] (Table 5C) was above 100 µM each time. Consider `O=C(Cn1nc(-c2ccc(OC(F)F)nc2)ccc1=O)NCc1ccc(Cl)cc1` [Compound I-70, N-(4-chlorobenzyl)-2-(3-(6-(difluoromethoxy)pyridin-3-yl)-6-oxopyridazin-1(6H)-yl)acetamide], for which the concentration for half-maximal inhibition (IC50) was below 10 µM in test [1] (Table 4A) and above 100 µM in test [2] (Table 5A).

In test [1] (Table 4A), `CCNC(=O)Cn1nc(-c2cnc(OCCOC(F)(F)F)nc2)ccc1=O` [Compound I-49, N-ethyl-2-(6-oxo-3-(2-(2-(trifluoromethoxy)ethoxy)pyrimidin-5-yl)pyridazin-1(6H)-yl)acetamide] had a half-inhibitory concentration (IC50) of 10 to 100 µM.

As to `CCNC(=O)Cn1nc(-c2ccc(N3CC4CC(C3)O4)nc2)ccc1=O` [Compound I-43, 2-(3-(6-(6-oxa-3-azabicyclo[3.1.1]heptan-3-yl)pyridin-3-yl)-6-oxopyridazin-1(6H)-yl)-N-ethylacetamide], the IC50 in test [1] (Table 4A) lay within 10 to 100 µM. Regarding `CCNC(=O)Cn1nc(-c2cnc(NC34CC(O)(C3)C4)nc2)ccc1=O` [Compound I-42, N-ethyl-2-(3-(2-((3-hydroxybicyclo[1.1.1]pentan-1-yl)amino)pyrimidin-5-yl)-6-oxopyridazin-1(6H)-yl)acetamide], the half-inhibitory concentration (IC50) in test [1] (Table 4A) lay within 10 to 100 µM. Consider `CCNC(=O)Cn1nc(-c2ccc(N3CC(COC(F)(F)F)C3)nc2)ccc1=O` [Compound I-40, N-ethyl-2-(6-oxo-3-(6-(3-((trifluoromethoxy)methyl)azetidin-1-yl)pyridin-3-yl)pyridazin-1(6H)-yl)acetamide], for which the 50% inhibitory concentration (IC50) in test [1] (Table 4A) lay within 10 to 100 µM.

Compound `CCNC(=O)Cn1nc(-c2ccc(NC34CCC(CC3)CC4)nc2)ccc1=O` [Compound I-41, 2-(3-(6-(bicyclo[2.2.2]octan-1-ylamino)pyridin-3-yl)-6-oxopyridazin-1(6H)-yl)-N-ethylacetamide] registered an IC50 in test [1] (Table 4A) of 10 to 100 µM. In the case of `CCNC(=O)Cn1nc(-c2ccc(NC)nc2)ccc1=O` [Compound I-47, N-ethyl-2-(3-(6-(methylamino)pyridin-3-yl)-6-oxopyridazin-1(6H)-yl)acetamide], in test [1] (Table 4A), the half-inhibitory concentration (IC50) is below 10 µM. In turn, `CCNC(=O)Cn1nc(-c2ccc(N3CCCC3C(F)(F)F)nc2)ccc1=O` (stereo not shown) [Compound I-48, N-ethyl-2-(6-oxo-3-(6-(2-(trifluoromethyl)pyrrolidin-1-yl)pyridin-3-yl)pyridazin-1(6H)-yl)acetamide] came in with a concentration for half-maximal inhibition (IC50) in test [1] (Table 4A) below 10 µM. In test [1] (Table 4A), `O=C(Cn1nc(-c2ccc(NC34CC(C3)C4)nc2)ccc1=O)N1CCC1` [Compound I-39, 2-(2-(azetidin-1-yl)-2-oxoethyl)-6-(6-(bicyclo[1.1.1]pentan-1-ylamino)pyridin-3-yl)pyridazin-3(2H)-one] came in with a concentration for half-maximal inhibition (IC50) of 10 to 100 µM. In test [1] (Table 4A), `O=C(Cn1nc(-c2ccc(NC34CC(C3)C4)nc2)ccc1=O)NC12CC(C1)C2` [Compound I-46, N-(bicyclo[1.1.1]pentan-1-yl)-2-(3-(6-(bicyclo[1.1.1]pentan-1-ylamino)pyridin-3-yl)-6-oxopyridazin-1(6H)-yl)acetamide] showed a 50% inhibitory concentration (IC50) below 10 µM.

As to `CC(=O)Nc1ccc(-c2ccc(=O)n(CC(=O)NCc3ccccc3Cl)n2)cc1` [II-8, 2-(3-(4-acetamidophenyl)-6-oxopyridazin-1(6H)-yl)-N-(2-chlorobenzyl) acetamide], the IC50 in test [1] (Table 4B) was below 10 µM. As to `CC[C@H](C)NC(=O)Cn1nc(-c2ccc(OC(F)F)nc2)ccc1=O` [Compound I-67, (S)-N-(sec-butyl)-2-(3-(6-(difluoromethoxy)pyridin-3-yl)-6-oxopyridazin-1(6H)-yl)acetamide], the IC50 in test [1] (Table 4A) was below 10 µM.
